Legend:
Type in all cases: in vivo
barnyardgrass [1] = assay: Test Example 1: herbicidal effects in preemergence treatment under submerged conditions; conditions: dose 2.52 g/a
In short: (§1)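 Alluvial soil was flooded to 4 cm, sown with barnyardgrass, bulrush and ducksalad, and planted with 2.5-leaf rice seedlings. On the seeding day, water-diluted emulsifiable concentrates were applied to the water surface at set doses (g/a). After three weeks in a 25 to 30° C. greenhouse, mortality was scored 0–5.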

bulrush [2] = assay: as above; conditions: dose 2.52 g/a
In short: as §1

ducksalad [3] = assay: as above; conditions: dose 2.52 g/a
In short: as §1

transplanted rice = assay: Test Example 1: preemergence treatment under submerged conditions, effect on crop; conditions: dose 2.52 g/a
In short: as §1

barnyardgrass [4] = assay: Test Example 2: herbicidal effects during the vegetation period under submerged conditions; conditions: treatment during the vegetation period under submerged conditions; dose 2.52 g/a
In short: (§2)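 Barnyardgrass, bulrush and ducksalad were co-sown in alluvial soil flooded to 4 cm and grown in a greenhouse at 25 to 30° C. At the 1- or 2-leaf stage, water-diluted emulsifiable concentrates went onto the water surface at set doses (g/a). Herbicidal effect was scored three weeks later on a graded scale.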

bulrush [5] = assay: as above; conditions: treatment during the vegetation period under submerged conditions; dose 2.52 g/a
In short: as §2

ducksalad [6] = assay: as above; conditions: treatment during the vegetation period under submerged conditions; dose 2.52 g/a
In short: as §2

Italian ryegrass [7] = assay: Test Example 3: herbicidal effects in soil treatment; conditions: dose 6.3 g/a
In short: (§3)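 Seeds were sown in sterilized diluvial soil and covered with about 1.5 cm of soil. Compounds, formulated as emulsifiable concentrates and diluted with water, were sprayed evenly over the soil surface at set doses in g/a. Herbicidal effect was scored on a rating scale three weeks later.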

barnyardgrass [8] = assay: as above; conditions: dose 6.3 g/a
In short: as §3

common chickweed [9] = assay: as above; conditions: dose 6.3 g/a
In short: as §3

common lambsquater [10] = assay: as above; conditions: dose 6.3 g/a
In short: as §3

common ragweed [11] = assay: as above; conditions: dose 6.3 g/a
In short: as §3

giant foxtail [12] = assay: as above; conditions: dose 6.3 g/a
In short: as §3

large crabgrass [13] = assay: as above; conditions: dose 6.3 g/a
In short: as §3

posumbu knotweed [14] = assay: as above; conditions: dose 6.3 g/a
In short: as §3

redroot pigweed [15] = assay: as above; conditions: dose 6.3 g/a
In short: as §3

velvetleaf [16] = assay: as above; conditions: dose 6.3 g/a
In short: as §3

water foxtail [17] = assay: as above; conditions: dose 6.3 g/a
In short: as §3

wild oat [18] = assay: as above; conditions: dose 6.3 g/a
In short: as §3

Italian ryegrass [19] = assay: Test Example 4: herbicidal effect in foliage treatment; conditions: dose 6.3 g/a, three weeks after application
In short: (§4)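 Sowing in sterilized diluvial soil, ~1.5 cm cover; growth 14 d, 25–30° C greenhouse; foliar spray of water-diluted EC at predetermined g/a; scoring 3 wk later on graded scale.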

barnyardgrass [20] = assay: as above; conditions: dose 6.3 g/a, three weeks after application
In short: as §4

beadstraw = assay: as above; conditions: dose 6.3 g/a, three weeks after application
In short: as §4

common chickweed [21] = assay: as above; conditions: dose 6.3 g/a, three weeks after application
In short: as §4

common lambsquater [22] = assay: as above; conditions: dose 6.3 g/a, three weeks after application
In short: as §4

common ragweed [23] = assay: as above; conditions: dose 6.3 g/a, three weeks after application
In short: as §4

giant foxtail [24] = assay: as above; conditions: dose 6.3 g/a, three weeks after application
In short: as §4

large crabgrass [25] = assay: as above; conditions: dose 6.3 g/a, three weeks after application
In short: as §4

posumbu knotweed [26] = assay: as above; conditions: dose 6.3 g/a, three weeks after application
In short: as §4

redroot pigweed [27] = assay: as above; conditions: dose 6.3 g/a, three weeks after application
In short: as §4

velvetleaf [28] = assay: as above; conditions: dose 6.3 g/a, three weeks after application
In short: as §4

water foxtail [29] = assay: as above; conditions: dose 6.3 g/a, three weeks after application
In short: as §4

wild oat [30] = assay: as above; conditions: dose 6.3 g/a, three weeks after application
In short: as §4

Structure (SMILES)	A: barnyardgrass, herbicidal effect (evaluation scale 0-5) (barnyardgrass [1])	B: bulrush, herbicidal effect (evaluation scale 0-5) (bulrush [2])	C: ducksalad, herbicidal effect (evaluation scale 0-5) (ducksalad [3])	a: transplanted rice, effect on crop (evaluation scale 0-5) (transplanted rice)	A: barnyardgrass, herbicidal effect (evaluation scale 0-5) (barnyardgrass [4])	B: bulrush, herbicidal effect (evaluation scale 0-5) (bulrush [5])	C: ducksalad, herbicidal effect (evaluation scale 0-5) (ducksalad [6])	H: Italian ryegrass, herbicidal effect (evaluation scale 0-5) (Italian ryegrass [7])	A: barnyardgrass, herbicidal effect (evaluation scale 0-5) (barnyardgrass [8])	N: common chickweed, herbicidal effect (evaluation scale 0-5) (common chickweed [9])	L: common lambsquater, herbicidal effect (evaluation scale 0-5) (common lambsquater [10])	J: common ragweed, herbicidal effect (evaluation scale 0-5) (common ragweed [11])	E: giant foxtail, herbicidal effect (evaluation scale 0-5) (giant foxtail [12])	D: large crabgrass, herbicidal effect (evaluation scale 0-5) (large crabgrass [13])	M: posumbu knotweed, herbicidal effect (evaluation scale 0-5) (posumbu knotweed [14])	K: redroot pigweed, herbicidal effect (evaluation scale 0-5) (redroot pigweed [15])	I: velvetleaf, herbicidal effect (evaluation scale 0-5) (velvetleaf [16])	G: water foxtail, herbicidal effect (evaluation scale 0-5) (water foxtail [17])	F: wild oat, herbicidal effect (evaluation scale 0-5) (wild oat [18])	H: Italian ryegrass, herbicidal effect (Italian ryegrass [19])	further results
CCOC(=O)N(c1ccccc1CN1CCS(=O)(=O)CC1=O)S(=O)(=O)C(F)(F)F [Compound I-19, 4-[2-(N-ethoxycarbonyl-N-trifluoromethanesulfonyl)aminobenzyl]-1,4-thiazinan-1,1-dioxide-3-one]	5 (mortality of 90% or above (nearly complete death))	5 (mortality of 90% or above (nearly complete death))	5 (mortality of 90% or above (nearly complete death))	0 (mortality of less than 5% (almost ineffective))	3 (mortality of at least 40% and less than 70%)	5 (mortality of 90% or above (nearly complete death))	4 (mortality of at least 70% and less than 90%)	2 (mortality of at least 20% and less than 40%)	4 (mortality of at least 70% and less than 90%)	5 (mortality of 90% or above (nearly complete death))	5 (mortality of 90% or above (nearly complete death))	4 (mortality of at least 70% and less than 90%)	4 (mortality of at least 70% and less than 90%)	4 (mortality of at least 70% and less than 90%)	4 (mortality of at least 70% and less than 90%)	4 (mortality of at least 70% and less than 90%)	2 (mortality of at least 20% and less than 40%)	5 (mortality of 90% or above (nearly complete death))	0 (mortality of less than 5% (almost ineffective))	3 (mortality of at least 40% and less than 70%)	A: barnyardgrass, herbicidal effect (barnyardgrass [20]): 4 (mortality of at least 70% and less than 90%); O: beadstraw, herbicidal effect (beadstraw): 4 (mortality of at least 70% and less than 90%); N: common chickweed, herbicidal effect (common chickweed [21]): 4 (mortality of at least 70% and less than 90%); L: common lambsquater, herbicidal effect (common lambsquater [22]): 4 (mortality of at least 70% and less than 90%); J: common ragweed, herbicidal effect (common ragweed [23]): 4 (mortality of at least 70% and less than 90%); E: giant foxtail, herbicidal effect (giant foxtail [24]): 4 (mortality of at least 70% and less than 90%); D: large crabgrass, herbicidal effect (large crabgrass [25]): 4 (mortality of at least 70% and less than 90%); M: posumbu knotweed, herbicidal effect (posumbu knotweed [26]): 3 (mortality of at least 40% and less than 70%); K: redroot pigweed, herbicidal effect (redroot pigweed [27]): 4 (mortality of at least 70% and less than 90%); I: velvetleaf, herbicidal effect (velvetleaf [28]): 3 (mortality of at least 40% and less than 70%); G: water foxtail, herbicidal effect (water foxtail [29]): 5 (mortality of 90% or above (nearly complete death)); F: wild oat, herbicidal effect (wild oat [30]): 0 (mortality of less than 5% (almost ineffective))
O=C1CCOCN1Cc1ccccc1NS(=O)(=O)C(F)(F)F [II-1]	5 (mortality of 90% or above (nearly complete death))	5 (mortality of 90% or above (nearly complete death))	5 (mortality of 90% or above (nearly complete death))	3 (mortality of at least 40% and less than 70%)	5 (mortality of 90% or above (nearly complete death))	5 (mortality of 90% or above (nearly complete death))	5 (mortality of 90% or above (nearly complete death))	3 (mortality of at least 40% and less than 70%)	5 (mortality of 90% or above (nearly complete death))	5 (mortality of 90% or above (nearly complete death))	5 (mortality of 90% or above (nearly complete death))	5 (mortality of 90% or above (nearly complete death))	5 (mortality of 90% or above (nearly complete death))	5 (mortality of 90% or above (nearly complete death))	1 (mortality of at least 5% and less than 20%)	1 (mortality of at least 5% and less than 20%)	5 (mortality of 90% or above (nearly complete death))	5 (mortality of 90% or above (nearly complete death))	0 (mortality of less than 5% (almost ineffective))	4 (mortality of at least 70% and less than 90%)	A: barnyardgrass, herbicidal effect (barnyardgrass [20]): 5 (mortality of 90% or above (nearly complete death)); O: beadstraw, herbicidal effect (beadstraw): 4 (mortality of at least 70% and less than 90%); N: common chickweed, herbicidal effect (common chickweed [21]): 4 (mortality of at least 70% and less than 90%); L: common lambsquater, herbicidal effect (common lambsquater [22]): 4 (mortality of at least 70% and less than 90%); J: common ragweed, herbicidal effect (common ragweed [23]): 4 (mortality of at least 70% and less than 90%); E: giant foxtail, herbicidal effect (giant foxtail [24]): 5 (mortality of 90% or above (nearly complete death)); D: large crabgrass, herbicidal effect (large crabgrass [25]): 5 (mortality of 90% or above (nearly complete death)); M: posumbu knotweed, herbicidal effect (posumbu knotweed [26]): 0 (mortality of less than 5% (almost ineffective)); K: redroot pigweed, herbicidal effect (redroot pigweed [27]): 0 (mortality of less than 5% (almost ineffective)); I: velvetleaf, herbicidal effect (velvetleaf [28]): 5 (mortality of 90% or above (nearly complete death)); G: water foxtail, herbicidal effect (water foxtail [29]): 5 (mortality of 90% or above (nearly complete death)); F: wild oat, herbicidal effect (wild oat [30]): 1 (mortality of at least 5% and less than 20%)

Source: patent publication US20120029187A1, “HALOALKYLSULFONANILIDE DERIVATIVE” (Nissan Chemical Industries, Ltd., priority 2009, published 2012)
